The nature of data set [1]: Cytotoxicity assay, RAW264.7 cell line. It counts as cell-based. The note with it: mouse, RAW264.7 cells. As for the experimental part: RAW264.7 cells and U937 cells in the logarithmic growth phase were counted and diluted, and the concentrations of the single-cell suspensions of the two types of cells were adjusted to 5 × 10^4 cells/mL and 3 × 10^4 cells/mL, respectively. After thorough mixing, the cells were seeded into a 96-well plate, with 100 μL of cell suspension added to each well. Prepare the working solution of test compounds using the corresponding medium as the solvent, with the concentration of working solution being 2 times the final test concentration (2.5 μM, 5 μM, 10 μM, 20 μM, and 40 μM). Twenty-four hours after cell seeding, the compound working solutions were added to the compound test wells, and the same volume of medium was added to the negative control wells, followed by continuous incubation for another 24 h. Only the wells with the same volume but without cells served as the blank control group. The CellTiter-Lumi™ luminescent cell viability assay kit (Beyotime Biotechnology, Shanghai, China, C0065XL) was used to detect cell viability according to the standard operating procedures. Each group of tests was independently repeated at least 3 times, and IC50 values were calculated using SPSS 10.0.

The next data set concerns PR3. The experiment in a line: PR3 activity in blood and bone marrow of mice. It counts as in vivo, C57BL/6 mice. To be noted: 30 mg/kg daily gavage, 7 days. The protocol:
A total of 25 C57BL/6 mice (6–8 weeks old, weighing approximately 20 g, with equal numbers of males and females) were randomly divided into five groups. Mice in the compound-treated groups were orally administered the compound once daily at doses of 0.3, 3, and 30 mg/kg for 7 consecutive days. […] Mice in the normal group were given an equal volume of normal saline at the same time points. The body weight, death rate, and behavior were observed and recorded daily for one week. After 7 days, bone marrow and blood samples were collected from the mice and lysed using 8% Triton X-100 buffer. The lysates were stored at −20 °C until testing. The activity assays for CTSC and NSPs were performed as described above. The mice were anesthetized and the tissues were taken for H&E staining.

The subject of a further data set is AIA model. The data set is described as follows: Adjuvant-induced arthritis (AIA) model, disease severity. To be noted: rat AIA. In kind it is in vivo, Sprague-Dawley rats. As for the experimental part:
Thirty 4-week-old male Sprague-Dawley rats (weighing 120–130 g) were randomly divided into 6 groups (5 rats per group) after 1 week of adaptive feeding, namely the normal group, model group, low-dose experimental group (15 mg/kg), medium-dose experimental group (30 mg/kg), high-dose experimental group (60 mg/kg), and positive control group (30 mg/kg). Starting from Day 0 of the experiment, rats in the administration groups and model group were injected intradermally with 0.1 mL of CFA into the left hind paw to induce AIA, while rats in the normal group were injected intradermally with an equal volume (0.1 mL) of normal saline as a control. After 13 consecutive days of feeding, rats treated with CFA successfully developed typical AIA symptoms. […] During the experiment, the body weight, mental state, activity ability, hair color changes, and paw appearance changes of the rats were observed and recorded daily. In addition, on Day 0 of the experiment (baseline period), the basic paw volume of all rats was accurately measured using a plethysmometer, which served as a reference standard for subsequent evaluation of inflammation severity. From Day 13 to Day 28 of the experiment, the paw volume of the rats was measured repeatedly every 3 days. The degree of paw swelling was quantified by calculating the change in paw volume relative to the baseline. Meanwhile, the arthritis index score was calculated based on the range of paw redness and swelling, the severity of swelling, and the degree of limb movement limitation, so as to comprehensively evaluate the inflammatory state. On Day 28 of the experiment (the end of the administration cycle), blood samples were collected via abdominal aortic puncture. The blood samples were centrifuged at 3000 rpm for 20 min, and the upper serum was collected and stored at −20 °C for subsequent detection. The rats were then sacrificed, and their ankle joint tissues were harvested for subsequent pathological section observation and analysis. The cytokine levels in serum were measured. The activity detection of CTSC and NSPs was carried out according to the above methods.

As usually defined, the IC50 is the point on the concentration scale where inhibition reaches its midpoint. Low readings indicate greater potency in that assay, high ones weaker potency in that assay.

SMILES strings stand for the structures. A value given as a limit tells only on which side of the number the result lay.

For the molecule `C[C@@H]1C[C@H]2OC(=O)[C@@]3(C)CCC[C@@](C)([C@@H]23)[C@@]1(O)CCc1ccoc1` [Marrubiin, marrubiin], the IC50 at 24 h in data set [1] is > 10 µM. Further, the “remaining activity rate of PR3” value in the data set with PR3 (blood) is ~13.6%; with PR3 (bone marrow), ~25.8%. In addition, in the data set on AIA model (60 mg/kg gavage, from day 16 onwards), the “clinical score vs AIA model group” value is recorded as “significantly lower than those of AIA model group”. For the same molecule, in the data set with AIA model (60 mg/kg, from day 16 onwards), the body weight recovery entry was “most significant weight recovery effects”. Also, the “histopathology of ankle joints (H&E, Safranin O/Fast Green)” value in the data set on AIA model (different doses (15, 30, 60 mg/kg)) is “reduced the histopathological statement”. The “volume and thickness of inflamed paws” value in the data set on AIA model (different doses (15, 30, 60 mg/kg), days 16 to 28) was “continuous reduction in volume and a gradual decrease in thickness”.

For the origin of these results see publication PMC12610274, “Identification of Marrubiin as a Cathepsin C Inhibitor for Treating Rheumatoid Arthritis” (Molecules, 2025).
